Measurements reported in patent EP0559625B1, “Esters of L-carnitine and acyl L-carnitine endowed with muscle relaxant activityselective on gastrointestinal tract and pharmaceutical compositions containing same” (Sigma-Tau Industrie Farmaceutiche Riunite S.p.A., priority 1992, dated 1993).
pIC50: −log10 of the molar value.

Tests used:
mice = assay: Assessment of behaviour and mortality in mice (Irwin's method); format: in vivo; conditions: for Death rate: dead/treated, 4 animals/dose; for Symptoms: n.e. = no effect, (*) = in connection with death rate only
Protocol: The assessment of normal behaviour in mice was carried out following S. Irwin's method, Psychopharmacologia 13, 222 (1968). This method allows alterations in some behavioural, neurophysiologic and neurovegetative parameters to be detected, which are directly observable by the researcher. The study was conducted using male CrI: (CD-I)(ICR)BR mice (Charles River - Italy) weighing 22-25 g, following oral administration of the compounds suspended in carboxymethylcellulose (0.5% by weight in H2O) to groups of 4 animals/dose.
The animals were continuously kept under observation for five hours following treatment and twice a day in the subsequent five days. Mortality was also observed during the overall test period. The initial dose was 1000 mg/kg per os; lower doses were administered in case of death or if the initial dose brought about an excessive response.

[1] = biological target: sites associated to calcium channels labeled by ^3H-Nitrendipine; assay: Binding to Ca++ channel sites labelled by 3H-Nitrendipine in rat brain; conditions: rat brain cortex membranes; ^3H-Nitrendipine 0.5 nM, 60' at 30°C; inactive at 10^-5 M not tested higher; read-out: IC50 Uptake sites of Ca^++ channels labelled with ^3H-Nitrendipine
Protocol: (§1) The "binding" of the tested compounds to the sites associated to calcium channels labeled by ^3H-Nitrendipine, ^3H-Verapamil and ^3H-Diltiazem has been assayed in rat brain according to the method of Schoemaker H. et al. Eur. J. Pharmacol. 111, 273 (1985) and of Reynolds I.J. et al. Eur. J. Pharmacol. 95, 319 (1983).
(§2) Brain cortices are removed from decollated male CrI: CD (SD) BR rats weighing 250-300 g.
(§3) The tissues were homogenized in Tris-HCl buffer and centrifuged at 50000 x g for 10 minutes. The pellet was washed twice through a fresh buffer suspension and centrifuged at 50000 x g for 10 minutes.
(§4) After suspension of the precipitate in the incubation buffer the compounds under examination were added to the medium, starting from a concentration 10^-5 M. Incubation conditions were: ^3H-Nitrendipine (0.5 nM) x 60' at 30°C; ^3H-Verapamil (10 µM) x 20' at 37°C; and ^3H-d-cis Diltiazem (4 nM) x 60' at 30°C. Final volume was 1 ml. Incubation was stopped by rapid filtration under vacuum through GF/B (0.1% […]) fiber filters which were washed with cold incubation buffer (3 x 3 ml) using the system of filtration Brandel Cell Harvester. Filters were put in 8 ml of Optifluor (Packard) and the radioactivity bound to the membranes trapped by fibers counted by liquid scintillation spectrometer TRI-CARB 1900 CA (Packard). The counting efficiency was about 50%.
(§5) The percentage inhibition of the specific ^3H-ligand binding to its respective receptors was calculated for each concentration (mean of three incubates).
(§6) The competition curve, the slope of the curve and IC50^± standard deviation values (drug concentration that reduces specific ^3H-ligand binding to its respective receptors by 50% of its maximum value) were calculated by using the "Allfit" program (De Lean A. et al., Am. J. Physiol. 235, E97, 1978) running on an IBM 55-SH.

[2] = biological target: sites associated to calcium channels labeled by ^3H-Verapamil; assay: Binding to Ca++ channel sites labelled by 3H-Verapamil in rat brain; conditions: rat brain cortex membranes; ^3H-Verapamil (10 µM), 20' at 37°C; read-out: IC50 Uptake sites of Ca^++ channels labelled with ^3H-Verapamil
Protocol: as §1, §2, §3, §4, §5, §6

[3] = biological target: sites associated to calcium channels labeled by ^3H-Diltiazem; assay: Binding to Ca++ channel sites labelled by 3H-Diltiazem in rat brain; conditions: rat brain cortex membranes; ^3H-d-cis Diltiazem 4 nM, 60' at 30°C; read-out: IC50 Uptake sites of Ca^++ channels labelled with ^3H-Diltiazem
Protocol: as §1, §2, §3, §4, §5, §6

Rat portal vein = assay: Rat portal vein: contractions evoked by high K+ concentrations; conditions: at a concentration of 10 mg/ml
Source text: The effect of the compound on the contractions evoked by high K^+ concentrations in the rat portal vein has been tested according to Shetty S.S. et al., Europ. J. Pharm. 141, 485 (1989).

[4] = test system: conscious spontaneously hypertensive rats (SHR); assay: Effect on blood pressure and heart rate in conscious SHR; format: in vivo; conditions: oral 100 mg/kg, 1, 2 and 4 hours after administration
Protocol: The effect of the substance has been tested after oral administration of 100 mg/kg to conscious spontaneously hypertensive rats (SHR). No changes of blood pressure and heart rate were observed 1, 2 and 4 hours after the administration. The experimental procedure was run according to Yeer T.T. et al, Life Sciences 22, 359 (1978).

SMILES	Death rate (mice; dose 1000 (mg/kg per os))	Symptoms (mice; dose 1000 (mg/kg per os))	pIC50 [1]	pIC50 [2]	pIC50 [3]	Death rate (mice; dose 300 (mg/kg per os))	Symptoms (mice; dose 300 (mg/kg per os))	Death rate (mice; dose 600 (mg/kg per os))	Symptoms (mice; dose 600 (mg/kg per os))	Death rate (mice; dose 100 (mg/kg per os))	Symptoms (mice; dose 100 (mg/kg per os))	effect on the contractions evoked by high K^+ concentrations in the rat portal vein (Rat portal vein)	changes of blood pressure [4]	changes of heart rate [4]
CC(C)COC(=O)C[C@H](C[N+](C)(C)C)OC(=O)C(C)C [ST 305]	0/4	n.e.	4.48	5.46	< 5.00									
CCCCOC(=O)C[C@H](C[N+](C)(C)C)OC(=O)CC(C)C [ST 683]	4/4	convulsions (*)	< 5.00	5.62	4.82	0/4	n.e.	2/4	convulsions (*)					
CC(C)COC(=O)C[C@H](C[N+](C)(C)C)OC(=O)CC(C)C [ST 684]	0/4	n.e.	< 5.00	5.80	5.11									
CCCCCCCOC(=O)C[C@H](C[N+](C)(C)C)OC(=O)CC(C)C [ST 697]	4/4	convulsions (*)	< 5.00	5.82	6.30	1/4	convulsions (*)	2/4	convulsions (*)	0/4	n.e.			
CCCCCCCCCCCOC(=O)C[C@H](C[N+](C)(C)C)OC(=O)C(C)C [ST 712, Isobutyryl L-carnitine undecyl ester chloride]	0/4	n.e.	5.28	5.55	5.92									
CCCCCCCOC(=O)C[C@H](C[N+](C)(C)C)OC(=O)C(C)C [ST 713, isobutyryl L-carnitine heptyl ester chloride]	4/4	convulsions (*)	< 5.00	5.92	5.89	2/4	convulsions (*)	3/4	convulsions (*)	0/4	n.e.			
CCCCCCCCCCCOC(=O)C[C@H](C[N+](C)(C)C)OC(=O)CC(C)C [ST 722, isovaleryl L-carnitine undecyl ester chloride]	0/4	salivation, diarrhea	5.80	6.42	5.85							inactive	No changes	No changes
CCCCCCCOC(=O)C[C@H](C[N+](C)(C)C)OC(C)=O [ST 904, acetyl L-carnitine heptyl ester chloride]	4/4	convulsions (*)	< 5.00	5.49	< 5.00	0/4	n.e.	2/4	convulsions (*)					
